From patent US11174262B2, “Compounds, compositions and methods” (Denali Therapeutics Inc., priority 2017, dated 2021)

target: GST-hRIPK1 (8-327) (Homo sapiens (Human), UniProt Q13546); test: Fluorescent Polarization Binding (FP Binding) assay, RIPK1; conditions: 10 nM GST-hRIPK1 (8-327), 5 nM fluorescent-labeled ligand, RT, 30 min, mean of minimum two experiments
Method: Fluorescent Polarization Binding (FP Binding) assay (Berger S. B. et al. (2015) Cell Death Discovery, 1: 15009; Maki J. L. et al. (2012) Anal Biochem., 427 (2): 164-174) was performed in polystyrene low volume 384-well black plate, at Room Temperature (RT) in a final volume of 10.1 μL/well using 10 nM of GST-hRIPK1 (8-327) enzyme and 5 nM of fluorescent-labeled ligand (14-(2-{[3-({2-{[4-(cyanomethyl)phenyl]amino}-6-[(5-cyclopropyl-1H-pyrazol-3-yl)amino]-4-pyrimidinyl}amino) propyl]amino}-2-oxoethyl)-16,16,18,18-tetramethyl-6,7,7a,8a,9,10,16,18-octahydrobenzo [2″,3″]indolizino[8″,7″:5′,6′]pyrano [3′,2′:3,4]pyrido[1,2-a]indol-5-ium-2-sulfonate.
Test compounds were serially diluted in DMSO at 100 fold final concentrations in the assay (1% DMSO final). In each well of a 384-well Plate were dispensed 0.1 μL of compound solution (or DMSO for controls) followed by 5 μL of GST-hRIPK1 (8-327) at twice the final concentrations in assay buffer (50 mM HEPES pH 7.5, 10 mM NaCl, 50 mM MgCl2, 0.02% CHAPS, 0.5 mM DTT and 0.01% Pluronic F127). For negative control the enzyme addition was replaced by assay buffer only.
After addition of 5 μL of fluorescent-labeled ligand at twice the final concentrations in assay buffer, the plate was incubated at RT for […]. At the end, the binding was measured as FP value with the Envision (PerkinElmer) plate reader using filter for an excitation λ=531 nm FP and an emission λ=595 nm FP (S & P-pol).
Test compound inhibition was expressed as percent inhibition of internal assay controls. For concentration response curves, normalized data is fit and IC50 determined using XL-fit (IDBS) for Excel. IC50 were averaged to determine a mean value, for a minimum of two independent experiments.
Receptor interacting protein kinase 1 activity of exemplary compounds was determined according to the above general procedures.

Sequence of GST-hRIPK1 (8-327) (Q13546 8-327): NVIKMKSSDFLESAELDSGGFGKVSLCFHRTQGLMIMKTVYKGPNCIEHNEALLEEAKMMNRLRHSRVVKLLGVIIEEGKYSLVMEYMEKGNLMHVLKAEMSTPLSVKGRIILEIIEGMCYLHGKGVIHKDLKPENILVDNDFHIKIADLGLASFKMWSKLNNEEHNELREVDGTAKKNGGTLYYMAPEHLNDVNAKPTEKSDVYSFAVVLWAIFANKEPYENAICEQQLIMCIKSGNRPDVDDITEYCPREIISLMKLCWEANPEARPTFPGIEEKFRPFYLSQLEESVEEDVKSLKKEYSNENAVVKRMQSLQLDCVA

Row | IC50 [nM] | Compound
1 | < 1000 | CC1(C)CCCN2CCC(c3cncc(F)c3)N2C1=O (racemic) [Example 1, 3-(5-fluoro-3-pyridyl)-6,6-dimethyl-1,2,3,7,8,9-hexahydropyrazolo[1,2-a]diazepin-5-one]
2 | < 1000 | CC1(C)CCCN2CCC(c3cncc(C#N)c3)N2C1=O (racemic) [Example 9, 5-(6,6-dimethyl-5-oxo-1,2,3,7,8,9-hexahydropyrazolo[1,2-a]diazepin-3-yl)pyridine-3-carbonitrile]
3 | < 1000 | CC1(C(F)F)CCCN2CCC(c3cncc(F)c3)N2C1=O (racemic) [Example 11, 6-(difluoromethyl)-3-(5-fluoro-3-pyridyl)-6-methyl-1,2,3,7,8,9-hexahydropyrazolo[1,2-a]diazepin-5-one]
4 | 1000 to 30000 | O=C1N2C(c3cncc(F)c3)CCN2CCCC12CC2 (racemic) [Example 16, 3-(5-fluoro-3-pyridyl)spiro[1,2,3,7,8,9-hexahydropyrazolo[1,2-a]diazepine-6,1′-cyclopropane]-5-one]
5 | < 1000 | CCC1(C(F)F)CCCN2CCC(c3cnc(C)cn3)N2C1=O (racemic) [Example 18, 6-(difluoromethyl)-6-ethyl-3-(5-methylpyrazin-2-yl)-1,2,3,7,8,9-hexahydropyrazolo[1,2-a]diazepin-5-one]
6 | < 1000 | Cc1cnc(C2CCN3CCCC(C)(C)C(=O)N23)cn1 (single isomer, unassigned) [Example 2, 6,6-dimethyl-3-(5-methylpyrazin-2-yl)-1,2,3,7,8,9-hexahydropyrazolo[1,2-a]diazepin-5-one]
7 | < 1000 | CC1(C)CCCN2CCC(c3cc(F)cc(F)c3)N2C1=O (single isomer, unassigned) [Example 3, 3-(3,5-difluorophenyl)-6,6-dimethyl-1,2,3,7,8,9-hexahydropyrazolo[1,2-a]diazepin-5-one]
8 | < 1000 | CC1(C)CCCN2CCC(c3ccc(F)c(F)c3)N2C1=O (single isomer, unassigned) [Example 4, 3-(3,4-difluorophenyl)-6,6-dimethyl-1,2,3,7,8,9-hexahydropyrazolo[1,2-a]diazepin-5-one]
9 | < 1000 | CC1(C)CCCN2CCC(c3cccc(F)c3)N2C1=O (single isomer, unassigned) [Example 5, 3-(3-fluorophenyl)-6,6-dimethyl-1,2,3,7,8,9-hexahydropyrazolo[1,2-a]diazepin-5-one]
10 | < 1000 | CC1(C(F)F)CCCN2CCC(c3cncc(F)c3)N2C1=O (single isomer, unassigned) [Example 10, 6-(difluoromethyl)-3-(5-fluoro-3-pyridyl)-6-methyl-1,2,3,7,8,9-hexahydropyrazolo[1,2-a]diazepin-5-one]
11 | < 1000 | Cc1cnc(C2CCN3CCCC(C)(C(F)F)C(=O)N23)cn1 (single isomer, unassigned) [Example 12, 6-(difluoromethyl)-6-methyl-3-(5-methylpyrazin-2-yl)-1,2,3,7,8,9-hexahydropyrazolo[1,2-a]diazepin-5-one]
12 | < 1000 | Cc1cnc(C2CCN3CCCC(C)(C(F)F)C(=O)N23)cn1 (single isomer, unassigned) [Example 13, 6-(difluoromethyl)-6-methyl-3-(5-methylpyrazin-2-yl)-1,2,3,7,8,9-hexahydropyrazolo[1,2-a]diazepin-5-one]
13 | < 1000 | CC1(C(F)F)CCCN2CCC(c3cncc(C#N)c3)N2C1=O (single isomer, unassigned) [Example 14, 5-[6-(difluoromethyl)-6-methyl-5-oxo-1,2,3,7,8,9-hexahydropyrazolo[1,2-a]diazepin-3-yl]pyridine-3-carbonitrile]
14 | < 1000 | CC1(C(F)F)CCCN2CCC(c3cncc(C#N)c3)N2C1=O (single isomer, unassigned) [Example 15, 5-[6-(difluoromethyl)-6-methyl-5-oxo-1,2,3,7,8,9-hexahydropyrazolo[1,2-a]diazepin-3-yl]pyridine-3-carbonitrile]
15 | < 1000 | CCC1(C(F)F)CCCN2CCC(c3cnc(C)cn3)N2C1=O (single isomer, unassigned) [Example 17, 6-(difluoromethyl)-6-ethyl-3-(5-methylpyrazin-2-yl)-1,2,3,7,8,9-hexahydropyrazolo[1,2-a]diazepin-5-one]
16 | < 1000 | CC1(C)CCCN2CCC(c3cc(F)cc(C#N)c3)N2C1=O (stereo not drawn) [Example 6, 3-(6,6-dimethyl-5-oxo-1,2,3,7,8,9-hexahydropyrazolo[1,2-a]diazepin-3-yl)-5-fluoro-benzonitrile]
17 | < 1000 | CC1(C)CCCN2CCC(c3ccc(C#N)cc3)N2C1=O (stereo not drawn) [Example 7, 4-(6,6-dimethyl-5-oxo-1,2,3,7,8,9-hexahydropyrazolo[1,2-a]diazepin-3-yl)benzonitrile]
18 | 1000 to 30000 | CCC1(C)COC[C@H]2CC[C@@H](c3cccc(F)c3)N2C1=O (stereo partly drawn) [Example 8, (7S,9aR)-4-ethyl-7-(3-fluorophenyl)-4-methyl-1,3,7,8,9,9a-hexahydropyrrolo[2,1-c][1,4]oxazepin-5-one]
